Laboratory results published in patent US20230144211A1, “ANTIFOLATE LINKER-DRUGS AND ANTIBODY-DRUG CONJUGATES” (Byondis B.V., priority 2020, published 2023).

Legend:
A-549 cells = assay: In vitro cell viability assay (CellTiter-Glo, 6 days); assay type: cell-based; conditions: Homo sapiens, A549; free antifolate drugs, Table 1a; $ steep hillslope
Protocol: (§1) Human tumor cell lines SK-BR-3, SW-620, A-549, BT-474, Jurkat Clone E6-1, AU-565, and SK-OV-3 were obtained from American Type Culture Collection (Rockville, Md., USA). FaDu, BxPC-3, HeLa, MV4-11, and RAJI cell lines were obtained from Deutsche Sammlung von Mikroorganismen und Zellkulturen (Leipzig, Germany). Jurkat NucLight Red cells were obtained from Essen BioScience Inc. (Ann Arbor, Mich., USA). SK-BR-3 and SK-OV-3 cells were cultured in McCoys 5A medium (Lonza; Walkersville, Md., USA) supplemented with 10% v/w Fetal Bovine Serum (FBS), Heat-inactivated (HI) (Gibco-Life Technologies; Carlsbad, Calif.) and 80 U/mL Pen/Strep (Gibco-Life Technologies), at 37° C. in a humidified incubator under 5% CO2 atmosphere. SW-620 cells were similarly maintained in RPMI 1640 medium (Lonza), containing 10% v/w FBS HI and 80 U/mL Pen/Strep. A-549 cells were similarly maintained in F-12K Nutrient Mixture (1×) (Gibco-Life Technologies) media supplemented with 80 U/mL Pen/Strep and 5% v/w FBS, which was Qualified (Q) (Gibco-Life Technologies). BT-474 and AU-565 cells were similarly maintained in RPMI 1640 medium (Lonza), containing 10% v/w FBS, which was Qualified (Q) (Gibco-Life Technologies), and 80 U/mL Pen/Strep. Jurkat Clone E6-1, BxPC-3, HeLa, MV4-11, and RAJI cells were similarly maintained in RPMI 1640 medium (Lonza), containing 10% v/w FBS HI and 80 U/mL Pen/Strep. Jurkat NucLight Red cells were similarly maintained in RPMI 1640 medium (Lonza), containing 10% v/w FBS HI, 80 U/mL Pen/Strep and 0.5 μg/mL Puromycin (Gibco-Life Technologies). FaDu cells were cultured in EMEM medium (Lonza) supplemented with 10% v/w FBS HI (Gibco-Life Technologies), 1× GlutaMAX (Gibco-Life Technologies), and 80 U/mL Pen/Strep (Gibco-Life Technologies), at 37° C. in a humidified incubator under 5% CO2 atmosphere.
(§2) Cells in complete growth medium were plated in 96-well plates (90 μL/well) and incubated at 37° C., 5% CO2 at the following cell densities: 6500 SK-BR-3, 4000 SW-620, 2500 A-549, 10000 BT-474, 3000 Jurkat Clone E6-1, 5000 AU-565, 1250 FaDu, 1250 BxPC-3, 1000 HeLa, 7500 MV4-11, 1000 RAJI, 3000 Jurkat NucLight Red, and 4000 SK-OV-3 cells per well. After an overnight incubation, 10 serial log 10 dilutions of the free drugs were made in DMSO (Sigma-Aldrich). These free drug dose-response curves were 10-times further diluted in complete growth medium. For the ADCs according to the invention 10 serial log 10 dilutions were made in complete growth medium. 10 μL of a composition comprising a free drug or an ADC according to the invention was added to the assay plate (final DMSO content for free drugs was 1%). […] Cell viability was assessed after 6 days using a luminescent assay kit (CellTiter-Glo™ (CTG), Promega Corporation) according to the manufacturer's instructions. Percentage cell survival was calculated by dividing the measured luminescence for each free drug or ADC according to the concentration with the average mean of untreated cells (1% or 0.1% DMSO control (for free drugs) or 100% complete growth medium (for ADCs)) multiplied by 100.
(§3) Curves were fitted by non-linear regression using the sigmoidal dose-response equation with variable slope (four parameters) using curve-fitting software (GraphPad Prism, version 9.4.0 for Windows, GraphPad, San Diego, Calif. or Electronic Laboratory Notebook (ELN) add-in BioAssay, version 19.1.0.0218, Perkin Elmer, Waltham, Mass.). Relative IC50 values were calculated as the concentration that gives a response halfway between bottom and top of the curve, when using a 4-parameter logistic fit. Data were reported as mean IC50 value of at least one experiment performed in duplicate.

SW-620 cells = assay: as above; assay type: cell-based; conditions: Homo sapiens, free antifolate drugs, Table 1a
Protocol: as §1, with “FaDu,” for “Human tumor cell lines SK-BR-3, SW-620, A-549, BT-474, Jurkat Clone E6-1, AU-565, and SK-OV-3 were obtained from American Type Culture Collection (Rockville, Md., USA). FaDu,”, “Jurkat Clone E6-1, BxPC-3, HeLa, MV4-11, and RAJI cells were similarly maintained in RPMI 1640 medium (Lonza), containing 10% v/w FBS HI and 80 U/mL Pen/Strep.” left out
as §2, with “After” for “Cells in complete growth medium were plated in 96-well plates (90 μL/well) and incubated at 37° C., 5% CO2 at the following cell densities: 6500 SK-BR-3, 4000 SW-620, 2500 A-549, 10000 BT-474, 3000 Jurkat Clone E6-1, 5000 AU-565, 1250 FaDu, 1250 BxPC-3, 1000 HeLa, 7500 MV4-11, 1000 RAJI, 3000 Jurkat NucLight Red, and 4000 SK-OV-3 cells per well. After”
as §3

SK-BR-3 cells = assay: as above; assay type: cell-based, human; conditions: Homo sapiens, SK-BR-3, free antifolate drugs
Protocol: as §1, with “FaDu,” for “Human tumor cell lines SK-BR-3, SW-620, A-549, BT-474, Jurkat Clone E6-1, AU-565, and SK-OV-3 were obtained from American Type Culture Collection (Rockville, Md., USA). FaDu,”, “Jurkat Clone E6-1, BxPC-3, HeLa, MV4-11, and RAJI cells were similarly maintained in RPMI 1640 medium (Lonza), containing 10% v/w FBS HI and 80 U/mL Pen/Strep.” left out
(§4) After an overnight incubation, 10 serial log 10 dilutions of the free drugs were made in DMSO (Sigma-Aldrich). These free drug dose-response curves were 10-times further diluted in complete growth medium. For the ADCs according to the invention 10 serial log 10 dilutions were made in complete growth medium. 10 μL of a composition comprising a free drug or an ADC according to the invention was added to the assay plate (final DMSO content for free drugs was 1%). […] […] Percentage cell survival was calculated by dividing the measured luminescence for each free drug or ADC according to the concentration with the average mean of untreated cells (1% or 0.1% DMSO control (for free drugs) or 100% complete growth medium (for ADCs)) multiplied by 100.
as §3

AU-565 cells = assay: as above; assay type: cell-based, human; conditions: Homo sapiens, AU565, free antifolate drugs
Protocol: as §1, with “FaDu,” for “Human tumor cell lines SK-BR-3, SW-620, A-549, BT-474, Jurkat Clone E6-1, AU-565, and SK-OV-3 were obtained from American Type Culture Collection (Rockville, Md., USA). FaDu,”, “Jurkat Clone E6-1, BxPC-3, HeLa, MV4-11, and RAJI cells were similarly maintained in RPMI 1640 medium (Lonza), containing 10% v/w FBS HI and 80 U/mL Pen/Strep.” left out
as §4, §3

Human tumor cell lines = assay: In vitro cell viability assays, free antifolate drugs, overall comparison; assay type: cell-based; conditions: compared with talotrexin or parent compound
Protocol: as §1, §2, §3

[1] = system: Jurkat NucLight Red cells; assay: In vitro cell viability assay (CellTiter-Glo, 6 days); assay type: cell-based, human; conditions: Homo sapiens, Jurkat, free antifolate drugs
Protocol: as §1, with “FaDu,” for “Human tumor cell lines SK-BR-3, SW-620, A-549, BT-474, Jurkat Clone E6-1, AU-565, and SK-OV-3 were obtained from American Type Culture Collection (Rockville, Md., USA). FaDu,”, “Jurkat Clone E6-1, BxPC-3, HeLa, MV4-11, and RAJI cells were similarly maintained in RPMI 1640 medium (Lonza), containing 10% v/w FBS HI and 80 U/mL Pen/Strep.” left out
After an overnight incubation, 10 serial log 10 dilutions of the free drugs were made in DMSO (Sigma-Aldrich). These free drug dose-response curves were 10-times further diluted in complete growth medium. For the ADCs according to the invention 10 serial log 10 dilutions were made in complete growth medium. 10 μL of a composition comprising a free drug or an ADC according to the invention was added to the assay plate (final DMSO content for free drugs was 1%). […] Cell viability was assessed after 6 days using a luminescent assay kit (CellTiter-Glo™ (CTG), Promega Corporation) according to the manufacturer's instructions. Percentage cell survival was calculated by dividing the measured luminescence for each free drug or ADC according to the concentration with the average mean of untreated cells (1% or 0.1% DMSO control (for free drugs) or 100% complete growth medium (for ADCs)) multiplied by 100.
as §3

With `Cc1c(CNc2ccc(C(=O)N[C@@H](CCCNC(=O)c3ccccc3C(=O)O)C(=O)O)cc2)ccc2nc(N)nc(N)c12` [Comparative compound 1, reference compound] the IC50 (A-549 cells) was 1.97 nM, the IC50 (SW-620 cells) was 1.41 nM and the IC50 (SK-BR-3 cells; Table 1a) was 0.92 nM.
For `Nc1nc(N)c2nc(CNc3ccc(C(=O)N[C@@H](CCCNC(=O)c4ccccc4C(=O)O)C(=O)O)cc3)cnc2n1` [Talotrexin, reference compound], the IC50 (A-549 cells) was 1.7 nM, the IC50 (SW-620 cells) was 1.74 nM and the IC50 (SK-BR-3 cells; Table 1a) was 1.83 nM.
`Nc1nc(N)c2nc(CNc3ccc(C(=O)N[C@@H](CCCNC(=O)c4ccc(O)cc4)C(=O)O)cc3)cnc2n1` [XS14, (S)-2-(4-(((2,4-diaminopteridin-6-yl)methyl)amino)benzamido)-5-(4-hydroxybenzamido)pentanoic acid] gave an IC50 (A-549 cells) of roughly 8.7 nM, an IC50 (AU-565 cells; Table 1a) of 1.9 nM and an IC50 (SK-BR-3 cells; Table 1a) of 1.6 nM.
In the case of `Nc1ccc(C(=O)O)c(C(=O)NCCC[C@H](NC(=O)c2ccc(NCc3cnc4nc(N)nc(N)c4n3)cc2)C(=O)O)c1` [XT9, (S)-4-Amino-2-((4-carboxy-4-(4-(((2,4-diaminopteridin-6-yl)methyl)amino)benzamido)butyl)carbamoyl)-benzoic acid], the IC50 (A-549 cells) is reported as 20 nM, the IC50 (SW-620 cells) is reported as 10 nM and the IC50 (SK-BR-3 cells; Table 1a) is reported as 17 nM.
Work on `Nc1ccc(C(=O)NCCC[C@H](NC(=O)c2ccc(NCc3cnc4nc(N)nc(N)c4n3)cc2)C(=O)O)c(C(=O)O)c1` [XT10, (S)-5-amino-2-((4-carboxy-4-(4-(((2,4-diaminopteridin-6-yl)methyl)-amino)benzamido)butyl)carbamoyl)benzoic acid] yielded an IC50 (A-549 cells) of 2 nM, an IC50 (SW-620 cells) of 2.1 nM and an IC50 (SK-BR-3 cells; Table 1a) of 1.9 nM.
Work on `CN(Cc1cnc2nc(N)nc(N)c2n1)c1ccc(C(=O)N[C@@H](CCCNC(=O)c2cc(N)ccc2C(=O)O)C(=O)O)cc1` [XT20, (S)-4-Amino-2-((4-carboxy-4-(4-(((2,4-diaminopteridin-6-yl)methyl)(methyl)amino)benzamido)butyl)-carbamoyl)benzoic acid] yielded an IC50 (A-549 cells) of 19 nM, an IC50 (SW-620 cells) of 12 nM and an IC50 (SK-BR-3 cells; Table 1a) of 25 nM.
With `CN(Cc1cnc2nc(N)nc(N)c2n1)c1ccc(C(=O)N[C@@H](CCCNC(=O)c2ccc(N)cc2C(=O)O)C(=O)O)cc1` [XT21, (S)-5-amino-2-((4-carboxy-4-(4-(((2,4-diaminopteridin-6-yl)methyl)(methyl)amino)benzamido)butyl)carbamoyl)benzoic acid] the IC50 (A-549 cells) was 2.3 nM, the IC50 (SW-620 cells) was 2.9 nM and the IC50 (SK-BR-3 cells; Table 1a) was 2.1 nM.
`Nc1ccc(C(=O)O)c(C(=O)NCCC[C@H](NC(=O)c2ccc(CCc3cnc4nc(N)nc(N)c4n3)cc2)C(=O)O)c1` [XT24, (S)-4-Amino-2-((4-carboxy-4-(4-(2-(2,4-diaminopteridin-6-yl)ethyl)benzamido)butyl)carbamoyl) benzoic acid] showed an IC50 (A-549 cells) of 27 nM, an IC50 (SW-620 cells) of 7.5 nM and an IC50 (SK-BR-3 cells; Table 1a) of 18 nM.
`Nc1ccc(C(=O)NCCC[C@H](NC(=O)c2ccc(CCc3cnc4nc(N)nc(N)c4n3)cc2)C(=O)O)c(C(=O)O)c1` [XT25, (S)-5-amino-2-((4-carboxy-4-(4-(2-(2,4-diaminopteridin-6-yl)ethyl)benzamido)butyl)-carbamoyl)benzoic acid] was tested, and the IC50 (A-549 cells) was 2.3 nM, the IC50 (SW-620 cells) was 1.1 nM and the IC50 (SK-BR-3 cells; Table 1a) was 1 nM.
For `Nc1ccc(C(=O)NCCC[C@H](NC(=O)c2ccc(NCc3cnc4nc(N)nc(N)c4n3)cc2)C(=O)O)cc1` [XT35, (S)-5-(4-Aminobenzamido)-2-(4-(((2,4-diaminopteridin-6-yl)methyl)amino)benzamido) pentanoic acid], the “antifolate activity, comparison in words” value (Human tumor cell lines) was “less active than talotrexin”, the IC50 (A-549 cells) was 16 nM and the IC50 (SW-620 cells) was 2.5 nM. The IC50 (SK-BR-3 cells; Table 1a) was 3.1 nM.
`Nc1ccc(C(=O)NCCC[C@H](NC(=O)c2ccc(NCc3ccc4nc(N)nc(N)c4c3Cl)cc2)C(=O)O)c(-c2nnn[nH]2)c1` [XT110, (S)-5-(4-Amino-2-(1H-tetrazol-5-yl)benzamido)-2-(4-(((2,4-diamino-5-chloroquinazolin-6-yl)methyl)amino)benzamido)pentanoic acid] was tested, and the “antifolate activity, comparison in words” value (Human tumor cell lines) was “strongly increased the antifolate activity”, the IC50 (AU-565 cells; Table 1b) was 0.36 nM and the IC50 (AU-565 cells; Table 1c) was 0.44 nM. The IC50 (SK-BR-3 cells; Table 1b, # no full dose-response curve) was 0.41 nM, the IC50 (SK-BR-3 cells; Table 1c) was 0.54 nM and the IC50 ([1]; Table 1b) was 0.75 nM. For the same compound, the IC50 ([1]; Table 1c) was 0.92 nM.
For `[N-]=[N+]=Nc1ccc(C(=O)NCCC[C@H](NC(=O)c2ccc(CCc3cnc4nc(N)nc(N)c4n3)cc2)C(=O)O)cc1` [XX5, (S)-5-(4-Azidobenzamido)-2-(4-(2-(2,4-diaminopteridin-6-yl)ethyl)benzamido) pentanoic acid], the “antifolate activity, comparison in words” value (Human tumor cell lines) was “less active than talotrexin”, the IC50 (A-549 cells) was 76 nM and the IC50 (SW-620 cells) was 7.2 nM. The IC50 (SK-BR-3 cells; Table 1a) was 16 nM.
